The source made the active and inactive calls. The calls are words filed in the database; no cut-off is given here. Where only a bound is given, the exact number is not on record here.

Broadly, the IC50 is the point on the concentration scale where inhibition reaches its midpoint. A higher IC50 goes with weaker potency in that assay.

A short description of one assay: cells. The assay is classed as ADME, cell-based. Conditions: Homo sapiens, WS1, 48 h.
In assay [1] the test system is Mycobacterium tuberculosis. Nature of the assay: Anti-tubercular activity against Mycobacterium tuberculosis H37Rv expressing LuxABCDE assessed as relative luminescence by measuring ratio of RLU (test compound)/RLU(no compound) at 1.25 uM by luminescence based assay. The format is functional.
The test system of assay [2] is Mycobacterium tuberculosis. Nature of the assay: Anti-tubercular activity against Mycobacterium tuberculosis H37Rv expressing LuxABCDE assessed as relative luminescence by measuring ratio of RLU (test compound)/RLU(no compound) at 2.5 uM by luminescence based assay. The format is functional.
Assay [3] relates to Mycobacterium tuberculosis. Nature of the assay: Anti-tubercular activity against Mycobacterium tuberculosis H37Rv expressing LuxABCDE assessed as relative luminescence by measuring ratio of RLU (test compound)/RLU(no compound) at 5 uM by luminescence based assay. The format is functional.
Assay [4] deals with Mycobacterium tuberculosis. Nature of the assay: Anti-tubercular activity against Mycobacterium tuberculosis H37Rv expressing LuxABCDE assessed as relative luminescence by measuring ratio of RLU (test compound)/RLU(no compound) at 0.625 uM by luminescence based assay. The format is functional, organism-based.
The test system of assay [5] is Mycobacterium tuberculosis. Description: Anti-tubercular activity against Mycobacterium tuberculosis H37Rv expressing LuxABCDE assessed as relative luminescence by measuring ratio of RLU (test compound)/RLU(no compound) at 20 uM by luminescence based assay. The format is functional.
Assay [6] concerns Mycobacterium tuberculosis. Description: Anti-tubercular activity against Mycobacterium tuberculosis H37Rv expressing LuxABCDE assessed as relative luminescence by measuring ratio of RLU (test compound)/RLU(no compound) at 10 uM by luminescence based assay. The assay is classed as functional.
For assay [7], the system named is Mycobacterium tuberculosis. Description: Anti-tubercular activity against Mycobacterium tuberculosis H37Rv expressing LuxABCDE assessed as luminescence signal at 2.5 uM by luminescence based assay relative to untreated control. The assay is classed as functional.
For assay [8], the system named is Mycobacterium tuberculosis. Description: Anti-tubercular activity against Mycobacterium tuberculosis H37Rv expressing LuxABCDE assessed as luminescence signal at 1.3 uM by luminescence based assay relative to untreated control. The assay is classed as functional.
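Wherever IC50 is given: cell viability loss read out with alamar blue dye, IC50 being the concentration cutting viability by half.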

Description for cells: Cytotoxicity in human WS1 cells assessed as reduction in cell viability incubated fro 48 hrs by alamar blue dye based assay

In “cells”, `Oc1ccc2nccc(Nc3ccc(OCc4ccccc4)cc3)c2c1` returned an IC50 of 2.5 µM. The Ratio in assay [1] was 0.95; in [2], 0.86; in assay [3], 0.66; in [5], 0.37; in assay [6], 0.42. In [4], the outcome was inactive.

`COc1cc2ncnc(Nc3cc(OC)c(OC)c(OC)c3)c2cc1OC` had a concentration for half-maximal inhibition (IC50) in the assay “cells” greater than 100 µM. Also, the Ratio in assay [3] is 1.03; in assay [5], 0.94; in assay [6], 1.01. Further, the Activity in assay [7] and in assay [8] was greater than 95% each time.

With `COc1cc2nccc(Nc3ccc(NC(C)=O)cc3)c2cc1OC`, the concentration for half-maximal inhibition (IC50) in the assay “cells” was determined as 9.7 µM. Moreover, the Ratio is reported as 1.21 in [1]; 1.1 in [2]; 1.11 in assay [3]; 1.02 in assay [5]; 1.07 in assay [6].

For the compound `CS(=O)(=O)CCNCc1ccc(-c2ccc3ncnc(Nc4ccc(OCc5cccc(F)c5)c(Cl)c4)c3c2)o1` [LAPATINIB], the concentration for half-maximal inhibition (IC50) in “cells” amounted to 13 µM. Moreover, the Ratio is given as 0.99 in assay [1]; 0.9 in assay [2]; 0.74 in assay [3]; 0.08 in assay [5]; 0.17 in assay [6]. Also, the result in assay [4] was inactive.

In the case of `C#Cc1cccc(Nc2c(C#N)cnc3cc(OC)c(OC)cc23)c1`, the IC50 in “cells” is greater than 100 µM. The Ratio in [3] came to 1.08; in assay [5] it was 0.98; in [6], 1.03. Further, the Activity in assay [7] and in assay [8] was greater than 95% each time.

`Oc1ccc2ncnc(Nc3ccc(OCc4ccccc4)cc3)c2c1` returned an IC50 in the assay “cells” of 26 µM. The Ratio in [1] is on record as 0.95; in assay [2], 0.94; in [3], 0.96; in assay [5] it was 0.8; in [6], 0.9. Also, in assay [4], the result was inactive.

In “cells”, `COc1cc2ncc(C#N)c(Nc3cc(OC)c(OC)c(OC)c3)c2cc1OC` registered an IC50 greater than 100 µM. In addition, the Ratio in assay [3] is recorded as 1.03; in [5] it was 0.97; in [6], 1.01. Moreover, the Activity in assay [7] and in [8] was greater than 95% in each case.

In turn, `Oc1cc2ncnc(Nc3ccc(OCc4ccc(F)cc4)cc3)c2cc1O` yielded an IC50 in the assay “cells” greater than 100 µM. The Ratio in [1] is 1.04; in assay [2], 1.14; in assay [3] it was 1; in assay [5] it was 0.76; in assay [6], 0.89. In assay [4], the outcome was inactive.

Turning to `COCCOc1cc2ncnc(Nc3cc(OC)c(OC)c(OC)c3)c2cc1OCCOC`, the IC50 in the assay “cells” was greater than 100 µM. The Ratio in assay [3] worked out at 1.02; in assay [5], 0.87; in assay [6] it was 0.96. Further, the Activity in assay [7] and in [8] was greater than 95% throughout.

As to `COc1ccc2ncnc(Nc3ccc(OCc4ccccc4)cc3)c2c1`, the IC50 in the assay “cells” was greater than 100 µM. Further, the Ratio was determined as 1.04 in assay [1]; 1.07 in assay [2]; 0.89 in assay [3]; 0.62 in [5]; 0.83 in [6]. The outcome in [4] was inactive.

Take `COc1ccc2c(Nc3ccc(NC(=O)c4ccc(C)cc4)c(O)c3)ccnc2c1`: inhibition in the assay “cells” was half-maximal at 4.7 µM (IC50). The Ratio in assay [1] came to 1.13; in assay [2], 1.11; in assay [3], 1.09; in [5] it was 0.96; in assay [6] it was 1.11.

As to `C#Cc1cccc(Nc2ccnc3cc(OCCOC)c(OCCOC)cc23)c1`, the half-maximal inhibitory concentration (IC50) in “cells” was greater than 100 µM. Moreover, the Ratio in assay [3] was found to be 0.88; in [5] it was 0.58; in assay [6] it was 0.79. In addition, the Activity in assay [7] and in assay [8] was greater than 95% throughout.

As to `COc1cc2nccc(Nc3ccc(OCc4cccc(F)c4)c(Cl)c3)c2cc1OC`, the IC50 in “cells” came out at 11 µM. The Ratio in [3] is recorded as 0.78; in assay [5], 0.1; in [6] it was 0.22. In addition, the Activity in assay [7] and in [8] was greater than 95% in each case.

Take `Oc1ccc2c(Nc3ccc(OCc4ccc(F)cc4)cc3)ncnc2c1`: the IC50 in the assay “cells” was greater than 100 µM. In addition, the Ratio is on record as 0.94 in assay [1]; 1.01 in [2]; 0.9 in assay [3]; 0.83 in assay [5]; 0.89 in assay [6]. The result in [4] was inactive.

Take `COc1cc2nccc(Nc3cccc(Br)c3)c2cc1OC`: the IC50 in “cells” amounted to 9.6 µM. In addition, the Ratio is reported as 1.03 in assay [3], 0.6 in assay [5] and 0.9 in [6]. Besides, the Activity in [7] and in [8] was greater than 95% in each case.

As to `COc1cc(Nc2ccnc3ccc(C(F)(F)F)cc23)cc(OC)c1OC`, the IC50 in the assay “cells” is greater than 100 µM. Besides, the values for the Ratio in assay [3], in [5] and in [6] were 1.23, 1.21 and 1.14, respectively. The Activity in [7] and in [8] was greater than 95% each time.

As for `COc1ccc2nccc(Nc3ccc(NC(=O)c4ccc(C)cc4)c(O)c3)c2c1`, the IC50 in “cells” stood at 10 µM. The Ratio in [1] is 1.11; in [2], 1.17; in [3], 1.14; in [5], 0.95; in assay [6] it was 1.28.

For `COc1cc2ncc(C#N)c(Nc3cccc(Br)c3)c2cc1OC`, the IC50 in the assay “cells” worked out at 11 µM. For the same compound, the Ratio in assay [3] came out at 0.88; in assay [5] it was 0.37; in assay [6], 0.56. The Activity in assay [7] and in [8] was greater than 95% throughout.

`COc1cc(Nc2ncnc3ccc(C(F)(F)F)cc23)cc(OC)c1OC` had an IC50 in “cells” greater than 100 µM. For the same compound, the Ratio in assay [3] was found to be 1.25; in [5] it was 1.06; in [6] it was 1.12. Further, the Activity in assay [7] and in assay [8] was greater than 95% in each case.

As for `C#Cc1cccc(Nc2ncnc3cc(OC)c(OC)cc23)c1`, the concentration for half-maximal inhibition (IC50) in “cells” was greater than 100 µM. In addition, the Ratio in [3] was determined as 0.93; in assay [5] it was 0.69; in assay [6], 0.83. Also, the Activity in assay [7] and in assay [8] was greater than 95% in each case.

The compound `COc1cc(Nc2ccnc3ccc(Br)cc23)cc(OC)c1OC` gave an IC50 in the assay “cells” greater than 100 µM. The Ratio amounted to 1.35 in assay [3], 1.28 in assay [5] and 1.41 in assay [6]. In addition, the Activity in assay [7] and in assay [8] was greater than 95% each time.

`COc1cc2ncnc(Nc3ccc(OCc4cccc(F)c4)c(Cl)c3)c2cc1OC`: in “cells”, inhibition was half-maximal at 1.1 µM (IC50). In addition, the Ratio is 0.92 in assay [3], 0.8 in assay [5] and 0.74 in assay [6]. Besides, the Activity in [7] and in [8] was greater than 95% in each case.

In the case of `COc1cc2nccc(Nc3ccc(NC(=O)c4ccc(C)cc4)c(O)c3)c2cc1OC`, the IC50 in “cells” worked out at 16 µM. Further, the Ratio in assay [1] came to 1.14; in assay [2] it was 1.09; in assay [3], 1.13; in assay [5], 0.45; in [6], 1.05.

In the assay “cells”, `COc1cc2ncnc(Nc3cccc(Br)c3)c2cc1OC` yielded an IC50 of 3.9 µM. For the same compound, the Ratio amounted to 0.98 in assay [3], 0.65 in assay [5] and 0.71 in [6]. Also, the Activity in assay [7] and in assay [8] was greater than 95% each time.

As for `COc1cc2ncnc(Nc3ccc(F)c(Cl)c3)c2cc1OCCCN1CCOCC1`, in assay [4], the outcome was inactive.

Compound `C#Cc1cccc(Nc2ccnc3cc(OC)c(OC)cc23)c1` returned an IC50 in “cells” greater than 100 µM. The Ratio is 1.02 in assay [3], 0.67 in [5] and 0.89 in assay [6]. For the same compound, the Activity in assay [7] and in [8] was greater than 95% in each case.

Compound `COc1cc2nccc(Nc3cc(OC)c(OC)c(OC)c3)c2cc1OC` showed an IC50 in “cells” greater than 100 µM. In addition, the Ratio in assay [3] stood at 1.26; in [5], 1.06; in [6] it was 1.11. The Activity in assay [7] and in [8] was greater than 95% each time.

`COc1cc2nccc(Nc3ccc(NC(=O)c4ccc(C(C)(C)C)cc4)c(O)c3)c2cc1OC` displayed an IC50 in the assay “cells” of 2.6 µM. The Ratio amounted to 1.1 in assay [1]; 1.12 in assay [2]; 1.06 in [3]; 0.25 in [5]; 0.72 in assay [6].

Regarding `C#Cc1cccc(Nc2ncnc3cc(OCCOC)c(OCCOC)cc23)c1`, in [4], the result was inactive.

Values taken from ChEMBL document CHEMBL4385662, “Anti-tubercular activity of novel 4-anilinoquinolines and 4-anilinoquinazolines” (Bioorg Med Chem Lett, 2019).
